Data reported in publication PMC7553643 (Bioorganic & medicinal chemistry letters, 2009).
Marks after values point to notes of the source that are not given here.

Experiments:
[1] = Pharmacokinetics in rats after single po and iv dosing; conditions: for AUC(0-inf): plasma
[2] = test system: Caco2; assay: Caco2 permeability; type: in vitro ADME
[3] = Solubility
[4] = Stability in rat liver microsomes; type: in vitro ADME
[5] = Caco2 permeability; type: in vitro ADME; conditions: human, Caco-2
[6] = rats, po, dose normalized to 30 mg/kg

With CCCCN1C(=O)C(CC2CCCCC2)NC(=O)C12CCN(Cc1ccc(Oc3ccccc3)cc1)CC2.Cl (centres unmarked) [Compound 1a] the clearance ([1]; rat, in vivo, iv, 30 mg/kg) was 113 mL/min/kg, the BA ([1]; rats, 30 mg/kg, po) was 1.9% and the “AUC (0-∞) (dose normalized to 30 mg/kg)” value [1, 6] was 74.4^a ng h/m. The “Cmax (dose normalized to 30 mg/kg)” value [1, 6] was 16.7^a ng/mL, the Caco2 permeability [2] was “not detected” and the solubility [3] was “less than 5 μM”.
CCCCN1C(=O)[C@H](CC2CCCCC2)NC(=O)C12CCN(Cc1ccc(Oc3ccc(C(=O)O)cc3)cc1)CC2.Cl [Compound 12, 4-(4-{[(3S)-1-butyl-3-(cyclohexylmethyl)-2,5-dioxo-1,4,9-triaza-spiro[5.5]undec-9-yl]methyl}phenoxy)benzoic acid hydrochloride] showed a remaining at 0.25 h [4] of 22%, a clearance ([1]; rat, in vivo, iv, 30 mg/kg) of 16 mL/min/kg and a half-life ([1]; rat, in vivo, iv, 30 mg/kg) of 11.1 min. It also gave an AUC ([1]; rat, in vivo, po, 30 mg/kg) of 10500 ng·h/mL, a Cmax ([1]; rat, in vivo, po, 30 mg/kg) of 7200 ng/mL and a half-life ([1]; rat, in vivo, po, 30 mg/kg) of 48.4 min. The AUC(0-inf) ([1]; rat, iv, 30 mg/kg) was 3090 ng·h/mL, the AUC(0-inf) ([1]; rat, po, 30 mg/kg) was 10500 ng·h/mL and the BA ([1]; rats, 30 mg/kg, po) was 34.1%. It also gave a Papp [5] of 26.4 ×10⁻⁶ cm/s and a solubility [3] of 26 µM.
